Assay results reported in patent US12239643B2, “Therapeutic agent for inflammatory diseases, autoimmune diseases, fibrotic diseases, and cancer diseases” (MEIJI SEIKA PHARMA CO., LTD., priority 2018, dated 2025).
Where two headings read alike, the source gives them in different places.

Key:
[1] = system: PDE4; assay: Evaluation of PDE4 inhibitory activity, scintillation proximity assay; type: biochemical; conditions: scintillation proximity assay
Summary of the method: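 SPA with [2,8-3H]-cAMP and diluted PDE4 enzyme preparation in 50 mM Tris-HCl pH 7.4, 8.3 mM MgCl2, 1.7 mM EGTA, 3 mg/mL BSA, 120 min at room temperature. Product captured on ZnSO4-containing YSi-SPA beads, scintillation counted; IC50 from inhibition curves vs DMSO control and no-enzyme blank.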

[2] = Hepatic metabolic stability (rat liver microsome method); type: in vitro ADME; conditions: rat liver microsomes 0.5 mg/mL, test substance 1 μM, NADPH 1 mM, 37° C., 30 minutes
Summary of the method: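 Rat liver microsomes (0.5 mg/mL final) with test compound (1 μM final) in 100 mM potassium phosphate pH 7.4, 37° C; reaction started with NADPH (1 mM final) after 5 min preincubation. Acetonitrile stop at 0 and 30 min, LC-MS quantitation; % remaining = 30 min/0 min ×100, graded A ≥75%, B 60–<75%, C 45–<60%, D <45%.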

[3] = read-out: PDE4 Inhibitory Activity (Evaluation 1; concentration for the inhibition rate of 50%)
[4] = class symbols of Evaluation 1, read-out: PDE4 Inhibitory Activity (concentration for the inhibition rate of 50%, IC50), Evaluation 1

SMILES | IC50 [1, 3] [nM] | Residual ratio (% remaining for 30-minute reaction) [2] | IC50 [1, 4] [nM]
OCc1cnc(Oc2ccc(-c3nccs3)c3oc(N4CC5CC(C4)N5)nc23)c(C(F)(F)F)c1 [Example 342, (6-((2-(3,6-Diazabicyclo[3.1.1]heptan-3-yl)-7-(thiazol-2-yl)benzo[d]oxazol-4-yl)oxy)-5-(trifluoromethyl)pyridin-3-yl)methanol] | < 100 | B (B: 60% or more and less than 75%) | 
O=S(=O)(c1ccc(-c2nccs2)c2oc(N3CC4CC(C3)N4)nc12)C(F)(F)F [Example 334, 2-(3,6-Diazabicyclo[3.1.1]heptan-3-yl)-7-(thiazol-2-yl)-4-((trifluoromethyl)sulfonyl)benzo[d]oxazole] | < 100 | B (B: 60% or more and less than 75%) | 
FC(F)(F)c1c(Cl)cc(-c2ccccn2)c2oc(N3CC4CCCC(C3)N4)nc12 [Example 12, 2-(3,9-Diazabicyclo[3.3.1]nonan-3-yl)-5-chloro-7-(pyridin-2-yl)-4-(trifluoromethyl)benzo[d]oxazole] |  | B (B: 60% or more and less than 75%) | < 100
FC(F)(F)c1ccc(Oc2ccc(-c3nccs3)c3oc(N4CC5CC(C4)N5)nc23)nc1 [Example 336, 2-(3,6-Diazabicyclo[3.1.1]heptan-3-yl)-7-(thiazol-2-yl)-4-((5-(trifluoromethyl)pyridin-2-yl)oxy)benzo[d]oxazole] | < 100 | B (B: 60% or more and less than 75%) | 
c1csc(-c2ccc(N3CCOCC3)c3nc(N4CC5CC(C4)N5)oc23)n1 [Example 369, 2-(3,6-Diazabicyclo[3.1.1]heptan-3-yl)-4-morpholino-7-(thiazol-2-yl)benzo[d]oxazole] | < 100 | B (B: 60% or more and less than 75%) | 
NC(=O)C(F)(F)Oc1ccc(-c2nccs2)c2oc(N3CC4CC(C3)N4)nc12 [Example 410, 2-((2-(3,6-Diazabicyclo[3.1.1]heptan-3-yl)-7-(thiazol-2-yl)benzo[d]oxazol-4-yl)oxy)-2,2-difluoroacetamide] | < 100 | A (A: a % remaining rate of 75% or more) | 
C[S+]([O-])c1ccc(-c2nccs2)c2oc(N3CC4CC(C3)N4)nc12 (stereo not shown) [Example 346, 2-(3,6-Diazabicyclo[3.1.1]heptan-3-yl)-4-(methylsulfinyl)-7-(thiazol-2-yl)benzo[d]oxazole] | < 100 | A (A: a % remaining rate of 75% or more) | 
Cc1csc(-c2ccc(OC(F)(F)C(C)(C)O)c3nc(N4CC5CC(C4)N5)oc23)n1 [Example 306, 1-((2-(3,6-Diazabicyclo[3.1.1]heptan-3-yl)-7-(4-methylthiazol-2-yl)benzo[d]oxazol-4-yl)oxy)-1,1-difluoro-2-methylpropan-2-ol] | 100 to 1000 | A (A: a % remaining rate of 75% or more) | 
OC(c1cc(-c2nccs2)c2oc(N3CC4CCC(C3)N4)nc2c1)C(F)F (stereo not shown) [Example 104, 1-(2-(3,8-Diazabicyclo[3.2.1]octan-3-yl)-7-(thiazol-2-yl)benzo[d]oxazol-5-yl)-2,2-difluoroethan-1-ol] |  | B (B: 60% or more and less than 75%) | < 100
O=C(NC1CC1)c1ccc(-c2nccs2)c2oc(N3CC4CC(C3)N4)nc12 [Example 357, 2-(3,6-Diazabicyclo[3.1.1]heptan-3-yl)-N-cyclopropyl-7-(thiazol-2-yl)benzo[d]oxazole-4-carboxamide] | < 100 | A (A: a % remaining rate of 75% or more) | 
NC(=O)c1ccc(-c2nccs2)c2oc(N3CC4CC(C3)N4)nc12 [Example 354, 2-(3,6-Diazabicyclo[3.1.1]heptan-3-yl)-7-(thiazol-2-yl)benzo[d]oxazole-4-carboxamide] | < 100 | A (A: a % remaining rate of 75% or more) | 
CS(=O)(=O)c1ccc(Oc2ccc(-c3nccs3)c3oc(N4CC5CC(C4)N5)nc23)nc1 [Example 352, 2-(3,6-Diazabicyclo[3.1.1]heptan-3-yl)-4-((5-(methylsulfonyl)pyridin-2-yl)oxy)-7-(thiazol-2-yl)benzo[d]oxazole] | < 100 | A (A: a % remaining rate of 75% or more) | 
OCCSc1ccc(-c2nccs2)c2oc(N3CC4CC(C3)N4)nc12 [Example 348, 2-((2-(3,6-Diazabicyclo[3.1.1]heptan-3-yl)-7-(thiazol-2-yl)benzo[d]oxazol-4-yl)thio)ethan-1-ol] | < 100 | B (B: 60% or more and less than 75%) | 
OCC(F)(F)Oc1ccc(-c2nccs2)c2oc(N3CC4CC(C3)N4O)nc12 [Example 374, 3-(4-(1,1-Difluoro-2-hydroxyethoxy)-7-(thiazol-2-yl)benzo[d]oxazol-2-yl)-3,6-diazabicyclo[3.1.1]heptan-6-ol] | < 100 | B (B: 60% or more and less than 75%) | 
O=C(c1ccc(-c2nccs2)c2oc(N3CC4CC(C3)N4)nc12)N1CCCC1 [Example 360, (2-(3,6-Diazabicyclo[3.1.1]heptan-3-yl)-7-(thiazol-2-yl)benzo[d]oxazol-4-yl) (pyrrolidin-1-yl)methanone] | 100 to 1000 | A (A: a % remaining rate of 75% or more) | 
c1csc(-c2ccc(O[C@@H]3CCOC3)c3nc(N4CC5CC(C4)N5)oc23)n1 [Example 324, 2-(3,6-Diazabicyclo[3.1.1]heptan-3-yl)-4-(((R)-tetrahydrofuran-3-yl)oxy)-7-(thiazol-2-yl)benzo[d]oxazole] | < 100 | A (A: a % remaining rate of 75% or more) | 
c1csc(-c2ccc(O[C@H]3CCOC3)c3nc(N4CC5CC(C4)N5)oc23)n1 [Example 323, 2-(3,6-Diazabicyclo[3.1.1]heptan-3-yl)-4-(((S)-tetrahydrofuran-3-yl)oxy)-7-(thiazol-2-yl)benzo[d]oxazole] | < 100 | B (B: 60% or more and less than 75%) | 
Cn1ccc(-c2ccc(OC(F)(F)C(C)(C)O)c3nc(N4CC5CCC(C4)N5)oc23)n1 [Example 328, 1-((2-(3,8-Diazabicyclo[3.2.1]octan-3-yl)-7-(1-methyl-1H-pyrazol-3-yl)benzo[d]oxazol-4-yl)oxy)-1,1-difluoro-2-methylpropan-2-ol] | < 100 | A (A: a % remaining rate of 75% or more) | 
CC(C)(O)C(F)(F)Oc1ccc(-c2ccc(Cl)cn2)c2oc(N3CC4CC(C3)N4)nc12 [Example 363, 1-((2-(3,6-Diazabicyclo[3.1.1]heptan-3-yl)-7-(5-chloropyridin-2-yl)benzo[d]oxazol-4-yl)oxy)-1,1-difluoro-2-methylpropan-2-ol] | < 100 | A (A: a % remaining rate of 75% or more) | 
OCC(F)(F)Oc1ccc(-c2ccc(F)cn2)c2oc(N3CC4CC(C3)N4)nc12 [Example 319, 2-((2-(3,6-Diazabicyclo[3.1.1]heptan-3-yl)-7-(5-fluoropyridin-2-yl)benzo[d]oxazol-4-yl)oxy)-2,2-difluoroethan-1-ol] | < 100 | A (A: a % remaining rate of 75% or more) | 
